Measured values reported in patent US20090017103A1, “Antisense oligonucleotides for prevention of metastasis formation of cancer cells” (priority 2003, published 2009).

Key:
osteopontin = experiment: Western blot of osteopontin expression after exposure to ASOs; format: cell-based, human; conditions: for osteopontin expression in relation to untreated control (100%): MDA-MB231, lipofectamine, 10 μM; for reduction of osteopontin expression: MDA-MB-231
bone sialoprotein II = experiment: Western blot of bone sialoprotein II expression after exposure to ASOs; format: cell-based, human; conditions: for bone sialoprotein II expression in relation to untreated control (100%): 10 μM

Row | Substance | osteopontin expression in relation to untreated control (100%) (osteopontin; single exposure) [%] | osteopontin expression in relation to untreated control (100%) (osteopontin; twofold exposure) [%] | reduction of osteopontin expression (osteopontin; repeated ASO exposure) [%] | reduction of osteopontin expression (osteopontin; single exposure) [%] | maximum inhibition of protein expression / suppression of protein level (OPN) (osteopontin; MDA-MB-231 cells, Western blot) [%] | bone sialoprotein II expression in relation to untreated control (100%) (bone sialoprotein II; MDA-MB231, single exposure, electroporation) [%] | bone sialoprotein II expression in relation to untreated control (100%) (bone sialoprotein II; MDA-MB231, single exposure, lipofectamine) [%] | bone sialoprotein II expression in relation to untreated control (100%) (bone sialoprotein II; MDA-MB231, twofold exposure, lipofectamine) [%] | bone sialoprotein II expression in relation to untreated control (100%) (bone sialoprotein II; MDA-MB231^F (growing without FBS), single exposure, lipofectamine) [%] | bone sialoprotein II expression in relation to untreated control (100%) (bone sialoprotein II; MDA-MB435s, single exposure, lipofectamine) [%] | maximum inhibition of protein expression / suppression of protein level (BSP II) (bone sialoprotein II; MDA-MB-231 cells, Western blot) [%] | reduction of bone sialoprotein expression (bone sialoprotein II; single exposure) [%] | reduction of bone sialoprotein protein level (bone sialoprotein II; twofold exposure) [%]
1 | 5′-CTAACTTAAAAAACAAAAGA-3′ (antisense CTAACTTAAAAAACAAAAGA; all phosphorothioate, sugars by position and methylation of C not given here) [ASO-OPN-4] | 16 | 23 | 77 | 84 | 85 |  |  |  |  |  |  |  | 
2 | 5′-GCT-TTC-TTC-GTT-TTC-ATT-TC-3′ [ASO-BSPII-6] |  |  |  |  |  | 16 | 33 | 15 | 79 | 0 | 75 | 84 | 81
